The conditions of series [1]: other bond, K2CO3/18-crown-6, toluene, 25.0 °C.
Series [2] deals with National Cancer Institute's (NCI) panel of 60 human tumor cell lines. Particulars: mean over the entire NCI 60 human tumor cell line panel; cited from earlier work.
Series [3] has as its system human cancer cell lines BXP-3, MCF-3, F-268, NCl-H460, KM20L2, DU-145. The series can be described thus: Cancer growth inhibition, average over the six human cancer cell line panel. The class given is cell-based. Particulars: for GI50: Homo sapiens, average over six human cancer cell lines; for tumor cell growth inhibitory activity compared with (+)-phorboxazole A (in words): summary of the six cell line panel. The procedure: (§1) With (+)-phorboxazole A (XVIII) and the eight phorboxazole analogues in hand, biological evaluation against a diverse panel of human cancer cell lines was conducted in the laboratory of Professor George R. Pettit at the Cancer Research Institute of Arizona State University. Specifically, cancer growth inhibition efficacy was evaluated against the human cancer cell lines; BXP-3 (pancreatic), MCF-3 (breast), F-268 (CNS), NCl-H460 (non-small lung), KM20L2 (colon), and DU-145 (prostate) (Smith, et al. Org. Lett. 2005, 7, 4403; Smith, et al. Org. Lett. 2005, 8, 797).

The subject of series [4] is KM20L2 (colon). In words: Cancer growth inhibition, colon cancer cell line. Format: cell-based. To be noted: Homo sapiens, KM-20L2. As to the method:
as §1

In series [5] the test system is NCl-H460 (non-small lung). The series can be described thus: Cancer growth inhibition, non-small lung cancer cell line. Particulars: Homo sapiens. Format: cell-based. As to the method: as §1
The subject of series [6] is F-268 (CNS). The series can be described thus: Cancer growth inhibition, CNS cancer cell line. Format: cell-based. Particulars: Homo sapiens. As to the method: as §1
For series [7], the system named is BXP-3 (pancreatic). The series can be described thus: Cancer growth inhibition, pancreatic cancer cell line. Format: cell-based. To be noted: Homo sapiens. As to the method: as §1
Series [8] relates to MCF-3 (breast). In words: Cancer growth inhibition, breast cancer cell line. The class given is cell-based. To be noted: Homo sapiens. As to the method: as §1

Where two headings read alike, the source gives them in different places.

The compound `C=C1C[C@@H]2C[C@@H]3CCO[C@@H](O3)c3coc(n3)/C=C/C[C@H]3O[C@@H](/C(C)=C/I)[C@H](C)[C@@H](OC(=O)/C=C\C[C@@H](C1)O2)[C@H]3C` came in with a ring closure, yield of all isomers in series [1] (from C=C1C[C@H](C[C@@H]2CCO[C@H](c3coc(/C=C/C[C@H]4O[C@@H](/C(C)=C/I)[C@H](C)[C@@H](OC(=O)CP(=O)(OCC(F)(F)F)OCC(F)(F)F)[C@H]4C)n3)O2)O[C@@H](CC=O)C1, 0.74 mM, 2.0 h) of 86%.
As for `C=C1C[C@@H]2C[C@@H]3C[C@@H](O[Si](C)(C)C(C)(C)C)C[C@@H](O3)c3coc(n3)/C=C/C[C@H]3O[C@@H](/C(C)=C/I)[C@H](C)[C@@H](OC(=O)/C=C\C[C@@H](C1)O2)[C@H]3C`, the ring closure, yield of all isomers in series [1] (from C=C1C[C@H](C[C@@H]2C[C@@H](O[Si](C)(C)C(C)(C)C)C[C@H](c3coc(/C=C/C[C@H]4O[C@@H](/C(C)=C/I)[C@H](C)[C@@H](OC(=O)CP(=O)(OCC(F)(F)F)OCC(F)(F)F)[C@H]4C)n3)O2)O[C@@H](CC=O)C1, 0.706 mM, 3.0 h) amounted to 96%.
In the case of `C=C1C[C@@H]2C[C@H]3C[C@@H](O)C[C@H](O3)c3coc(n3)/C=C\C[C@H]3O[C@@H](/C(C)=C/c4coc(C[C@]5(O)C[C@H](OC)C[C@H]([C@H](O)/C=C(C)/C=C/[C@@H](C/C=C/Br)OC)O5)n4)[C@H](C)[C@@H](OC(=O)/C=C\C[C@@H](C1)O2)[C@H]3C` [(+)-Phorboxazole B, Phorboxazole B], in series [2], the GI50 – broadly, the concentration that inhibits growth by half – is 1.58 nM.
For `C=C1C[C@@H]2C[C@@H]3C[C@@H](O)C[C@@H](O3)c3coc(n3)/C=C/C[C@H]3O[C@@H](/C(C)=C/c4coc(C[C@]5(O)C[C@H](OC)C[C@H]([C@H](O)/C=C(C)/C=C/[C@@H](C/C=C/Br)OC)O5)n4)[C@H](C)[C@@H](OC(=O)/C=C\C[C@@H](C1)O2)[C@H]3C` [XVIII, Phorboxazole A, reference compound], the GI50 in series [3] was 5 nM; in series [2] it was 1.58 nM.
On to `C#CC[C@H](/C=C/C(C)=C/[C@@H](O)[C@H]1C[C@@H](OC)C[C@@](O)(Cc2nc(/C=C(\C)[C@@H]3O[C@@H]4C/C=C/c5nc(co5)[C@H]5C[C@H](O)C[C@@H](C[C@H]6CC(=C)C[C@H](C/C=C/C(=O)O[C@@H]([C@H]4C)[C@H]3C)O6)O5)co2)O1)OC` [XVIIaE, E-C(2-3)-C(45-46)-Alkynyl-Phorboxazole], for which the GI50 in series [3] turned out to be 281 nM.
`C#CC[C@H](/C=C/C(C)=C/[C@@H](O)[C@H]1C[C@@H](OC)C[C@@](O)(Cc2nc(/C=C(\C)[C@@H]3O[C@@H]4C/C=C/c5nc(co5)[C@H]5C[C@H](O)C[C@@H](C[C@H]6CC(=C)C[C@H](C/C=C\C(=O)O[C@@H]([C@H]4C)[C@H]3C)O6)O5)co2)O1)OC` [XVIIaZ, C(45-46)-Alkynyl-Phorboxazole]: in series [3], growth was halved (GI50) at 5.2 nM and the “tumor cell growth inhibitory activity compared with (+)-phorboxazole A (in words)” value was “activity comparable to that of (+)-phorboxazole A”.
In the case of `C=C1C[C@@H]2C[C@@H]3C[C@@H](O)C[C@@H](O3)c3coc(n3)/C=C/C[C@H]3O[C@@H](/C(C)=C/c4coc(C[C@]5(O)C[C@H](OC)C[C@H]([C@H](O)/C=C(C)/C=C/[C@@H](CCC)OC)O5)n4)[C@H](C)[C@@H](OC(=O)/C=C\C[C@@H](C1)O2)[C@H]3C` [XVIIb, C(45-46)-Alkyl-Phorboxazole], the values for the GI50 in series [3], in series [4] and in series [5] were 3.1 nM, 1.3 nM and 1.6 nM, respectively. Also, the “tumor cell growth inhibitory activity compared with (+)-phorboxazole A (in words)” value in series [3] is “activity comparable to that of (+)-phorboxazole A”.
Turning to `C=CC[C@H](/C=C/C(C)=C/[C@@H](O)[C@H]1C[C@@H](OC)C[C@@](O)(Cc2nc(/C=C(\C)[C@@H]3O[C@@H]4C/C=C/c5nc(co5)[C@H]5C[C@H](O)C[C@@H](C[C@H]6CC(=C)C[C@H](C/C=C\C(=O)O[C@@H]([C@H]4C)[C@H]3C)O6)O5)co2)O1)OC` [XVIIc, C(45-46)-Alkenyl-Phorboxazole], in series [3], halving of growth (GI50) required 4.1 nM and the “tumor cell growth inhibitory activity compared with (+)-phorboxazole A (in words)” value was “activity comparable to that of (+)-phorboxazole A”.
In the case of `C=C1C[C@@H]2C[C@@H]3C[C@@H](O)C[C@@H](O3)c3coc(n3)/C=C/C[C@H]3O[C@@H](/C(C)=C/c4coc(C[C@]5(O)C[C@H](OC)C[C@H]([C@H](O)/C=C(C)/C=C/[C@@H](C/C=C/Cl)OC)O5)n4)[C@H](C)[C@@H](OC(=O)/C=C\C[C@@H](C1)O2)[C@H]3C` [XVIId, C(45-46)-E-Chloroalkenyl-Phorboxazole], the GI50 was determined as 0.49 nM in series [6], 0.38 nM in series [4], 0.64 nM in series [5] and 0.62 nM in series [7]. Moreover, in series [3], the “tumor cell growth inhibitory activity compared with (+)-phorboxazole A (in words)” value is “activity greater than that of (+)-phorboxazole A”.
Consider `C=CC[C@H](/C=C/C(C)=C/[C@@H](O)[C@H]1C[C@@H](OC)C[C@](Cc2nc(/C=C(\C)[C@@H]3O[C@H](CCO)[C@H](C)[C@H](OCc4ccc(OC)c(OC)c4)[C@H]3C)co2)(OC)O1)OC` [XVIIe, C(45-46)-Alkenyl-C(22-26)-Central Tetrahydropyran Phorboxazole], for which the “activity across the entire cell line panel (in words)” value in series [3] (six human cancer cell lines) was “inactive”.
`C#CC[C@H](/C=C/C(C)=C/[C@@H](O)[C@H]1C[C@@H](OC)C[C@@](O)(Cc2nc(/C=C(\C)[C@@H]3O[C@@H]4C/C=C/c5nc(co5)[C@H]5OCC[C@@H](C[C@H]6CC(=C)C[C@H](C/C=C/C(=O)O[C@@H]([C@H]4C)[C@H]3C)O6)O5)co2)O1)OC` [XVIIfE, E-C(2-3) C(11-15)-Acetal Alkynyl Phorboxazole] registered a GI50 in series [3] of 944 nM.
Turning to `C#CC[C@H](/C=C/C(C)=C/[C@@H](O)[C@H]1C[C@@H](OC)C[C@@](O)(Cc2nc(/C=C(\C)[C@@H]3O[C@@H]4C/C=C/c5nc(co5)[C@H]5OCC[C@@H](C[C@H]6CC(=C)C[C@H](C/C=C\C(=O)O[C@@H]([C@H]4C)[C@H]3C)O6)O5)co2)O1)OC` [XVIIfZ, Z-C(2-3) C(11-15)-Acetal Alkynyl Phorboxazole], the GI50 came out at 34.6 nM in series [3], 11.8 nM in series [4] and 18.3 nM in series [8].
